Converted amounts (≈) assume the structure as drawn.
Experiments:
Assay type in all cases: functional
Haemophilus influenzae [1] = assay: Minimum inhibitory concentration against H influenzae(beta-lactamase (-))
Staphylococcus aureus = assay: Minimum inhibitory concentration against Staphylococcus aureus
Streptococcus pneumoniae = assay: Minimum inhibitory concentration against Streptococcus pneumoniae
Escherichia coli = assay: Minimum inhibitory concentration against Escherichia coli
Streptococcus pyogenes = assay: Minimum inhibitory concentration against Streptococcus pyogenes
Haemophilus influenzae [2] = assay: Minimum inhibitory concentration against Haemophilus influenzae (beta-lactamase (+))
Haemophilus influenzae [3] = assay: Minimum inhibitory concentration against H influenzae (beta-lactamase (-))

Row | SMILES | MIC (Haemophilus influenzae [1]) [µg/mL] | MIC (Staphylococcus aureus) [µg/mL] | MIC (Streptococcus pneumoniae) [µg/mL] | MIC (Escherichia coli) [µg/mL] | MIC (Streptococcus pyogenes) [µg/mL] | MIC (Haemophilus influenzae [2]) [µg/mL] | MIC (Haemophilus influenzae [3]) [µg/mL]
1 | O=C(COc1ccccc1)N[C@@H]1C(=O)N2C(C(=O)O)=C(Cl)CSC12 (some centres not stated) |  | 0.25 (≈ 0.678 µM) | 0.25 (≈ 0.678 µM) | 64 (≈ 174 µM) | 0.125 (≈ 0.339 µM) | 2 (≈ 5.42 µM) | 2 (≈ 5.42 µM)
2 | N[C@@H](C(=O)N[C@@H]1C(=O)N2C(C(=O)O)=C(Cl)CS[C@H]12)c1ccccc1.O [CEFACLOR] | 1 | 1 | 0.5 | 1 | 0.25 | 2 | 
3 | CO[C@@]1(NC(=O)COc2ccccc2)C(=O)N2C(C(=O)O)=C(Cl)CSC21 (some centres not stated) | > 128 | > 128 | 128 (≈ 321 µM) | > 128 | 128 (≈ 321 µM) | > 128 | 
4 | O=C(Cc1cccs1)N[C@@H]1C(=O)N2C(C(=O)O)=C(Cl)CSC12 (some centres not stated) | 1 (≈ 2.79 µM) | 0.5 (≈ 1.39 µM) | 0.125 (≈ 0.348 µM) | 4 (≈ 11.1 µM) | 0.125 (≈ 0.348 µM) | 1 (≈ 2.79 µM) | 

The remaining lines, values ahead:

Row | MIC (Haemophilus influenzae [1]) [µg/mL] | MIC (Staphylococcus aureus) [µg/mL] | MIC (Streptococcus pneumoniae) [µg/mL] | MIC (Escherichia coli) [µg/mL] | MIC (Streptococcus pyogenes) [µg/mL] | MIC (Haemophilus influenzae [2]) [µg/mL] | MIC (Haemophilus influenzae [3]) [µg/mL] | SMILES
5 | > 128 | > 128 | 128 (≈ 329 µM) | > 128 | 128 (≈ 329 µM) | > 128 |  | CO[C@@]1(NC(=O)Cc2cccs2)C(=O)N2C(C(=O)O)=C(Cl)CSC21 (some centres not stated)
6 | 1 (≈ 2.67 µM) | 1 (≈ 2.67 µM) | 0.5 (≈ 1.33 µM) | 1 (≈ 2.67 µM) | 0.125 (≈ 0.333 µM) | 1 (≈ 2.67 µM) |  | Nc1nc(CC(=O)N[C@@H]2C(=O)N3C(C(=O)O)=C(Cl)CSC23)cs1 (some centres not stated)
7 | 16 (≈ 39.5 µM) | 16 (≈ 39.5 µM) | 0.5 (≈ 1.24 µM) | 8 (≈ 19.8 µM) | 1 (≈ 2.47 µM) | 16 (≈ 39.5 µM) |  | CO[C@@]1(NC(=O)Cc2csc(N)n2)C(=O)N2C(C(=O)O)=C(Cl)CSC21 (some centres not stated)

Reference: ChEMBL document CHEMBL1123987, “Oral absorption of cephalosporin antibiotics. 3. Synthesis and biological properties of 7 alpha-methoxy-7 beta-(arylacetamido)-3-chloro-3-cephem-4-carboxylic acids” (1988)
